ChEMBL document CHEMBL6182856, “Novel one-/two-photon excited carbazole/quinolinium photosensitizers manifest nanomolar and hypoxia-resistant tumor photodynamic therapy by accelerating apoptosis, ferroptosis, and autophagy” (Eur J Med Chem, 2025)

Key:
A549 [1] = assay: Induction of apoptosis in human A549 cells assessed as necrotic cells measured under dark conditions by AnnexinV-FITC/PI staining based flow cytometric analysis (reference value: 0.031%); assay type: functional
A549 [2] = assay: Induction of ferroptosis in human A549 cells assessed as increase in lipid peroxidation by measuring decrease in GPX4 protein expression measured upon irradiation by western blot analysis relative to control; assay type: functional
[3] = Phototherapeutic index, ratio of IC50 for cytotoxicity against human A549 cells measured under normoxia conditions to IC50 for phototoxicity against human A549 cells measured under normoxia conditions and after one-photon excitation upon irradiation with light at 520 nm, 200 mW/cm2 for 10 mins; assay type: functional
[4] = Selectivity index, ratio of IC50 for cytotoxicity against human HFL1 cells measured under normoxia conditions to IC50 for phototoxicity against human A549 cells measured under normoxia conditions and after one-photon excitation upon irradiation with light at 520 nm, 200 mW/cm2 for 10 mins; assay type: toxicity, cell-based; conditions: HFL1 cells versus A549 cells, read-out: Ratio IC50

In the case of `CCn1c2ccc(/C=C/c3cc[n+](C)c4ccccc34)cc2c2cc(N(c3ccccc3)c3ccccc3)ccc21.[I-]`, the Activity (A549 [1]) is reported as 0.85%, the “fold change (FC)” value (A549 [2]) is reported as 3.3 and the “Ratio IC50” value [3] is reported as 54. The selectivity ratio at 10 min [4] was 330.
